{"source": "patent US20090028834A1", "about": "(priority 2007, published 2009)", "type_in_all_cases": "cell-based", "key": {"[1]": {"system": "human bone marrow mononuclear cell (MNC) fraction", "assay": "CFC assay, multi-donor study, all seven cell populations (overall toxicity)", "conditions": "three donors, highest doses (up to 1 nM)", "protocol": "Compound was dissolved in 1 ml of Iscove's Modified Dulbecco's Medium (IMDM) and a serial dose response was prepared in single log doses so that the final dose in culture ranged from 1 nanoMolar (nM) to 1×10^−16 M. All working dilutions were performed in IMDM. Cell cultures from each donor were started at different times and a fresh solution of Homspera® was prepared for each individual experiment.\nStarting with human bone marrow aspirate, the mononuclear cell (MNC) fraction from each aspirate was separated from whole bone marrow using Ficoll-Paque density gradient centrifugation.\nThe colony-forming cell (CFC) assay was performed using optimal growth factor/cytokine concentrations. The reagents and conditions were similar to those used in Example 3, except that no ATP measurements were performed. The MNC fraction from each bone marrow donor was dissolved in IMDM and cultured at a concentration of 5,000 cells/well in a Culture Master Mix (HemoGenix, Inc., Colorado Springs, Colo.). […]\nThe mean, standard deviation and percent coefficient of variation was calculated for all groups, transposed and plotted as a function of donor. The percent from control values were calculated and also plotted as a function of donor. […]"}, "[2]": {"system": "Colony Forming Unit—Megakaryocyte (CFU-Mk)", "assay": "Colony forming unit (CFU) assay, human bone marrow cells", "conditions": "for effect of receptor antagonist on substance P-enhanced platelet colony formation: antagonist in the presence of substance P", "source_text": "(§1) This study examined the formation of three different progenitor cell populations, erythrocytes, platelets and granulocytes/macrophages.\n(§2) Bone marrow aspirates were obtained from three healthy donors between 18 and 35 years of age following appropriate guidelines and protocols. Bone marrow mononuclear cells were isolated using a Ficoll-Hypaque density gradient, separating red blood cells from the others. Cells from each donor were processed independently and used for setting up individual experiments to assess the effects, if any, of donor variability.\n(§3) Cells (1×10^5) were plated in duplicate onto 35 mm tissue culture plates for each condition tested and set up as described in Rameshwar et al. 1993, Blood. 81:2, 391-398. Erythroid and granulocyte/macrophage cultures were plated using methylcellulose and megakaryocyte cultures (platelet precursors) used a collagen-based support (StemCell Technologies, Vancouver, Canada, catalogue #04973). […] CP 99,994 (Pfizer) was used as a neurokinin-1 receptor antagonist and SR 48968 (Sanofi) was used as a neurokinin-2 receptor antagonist.\nCultures were set up with limited cytokines and growth factors which would promote differentiation of one progenitor per plate.\nEach compound was dissolved in endotoxin-free water to a final concentration of 0.1 mM. After reconstitution, the solutions were aliquoted into siliconized microcentrifuge tubes and exposed to nitrogen gas, eliminating oxygen in the head space of the enclosure. All aliquots were stored at −20° C. until use and used within one month of reconstitution. See, Rameshwar, et al. 1997, J. Immunol.\nCultures were incubated at 37° C. with 5% CO2 for approximately 14 days, after which colonies were manually enumerated using a microscope. To count megakaryocyte colonies, the cells were fixed followed by a staining procedure using the following antibodies: primary—mouse anti-human GP11b/111a, isotype control—mouse anti-trinitrophenyl, secondary—biotin-conjugated goat anti-mouse IgG, detection—avidin-alkaline phosphatase conjugate. […]"}, "[3]": {"system": "Colony Forming Unit—Erythroid (CFU-E)", "assay": "Colony forming unit (CFU) assay, human bone marrow cells", "conditions": "about 14 days; FIG. 2", "source_text": "as §1, §2, §3\n(§4) The cytokines and growth factors added to Blast Forming Unit—Erythroid (BFU-E) cultures, Colony Forming Unit—Erythroid (CFU-E) cultures, and Colony Forming Unit—Granulocyte/Macrophage (CFU-GM) cultures were added as defined by proliferative units. […]"}, "[4]": {"system": "Blast Forming Unit—Erythroid (BFU-E)", "assay": "Colony forming unit (CFU) assay, human bone marrow cells", "conditions": "about 14 days; three donors; FIG. 1", "source_text": "as §1, §2, §3, §4"}}}
{"molecule": "CC(C)C[C@H](NC(=O)CN(C)C(=O)[C@H](Cc1ccccc1)NC(=O)[C@H](Cc1ccccc1)NC(=O)[C@H](CCC(N)=O)NC(=O)[C@H](CCC(N)=O)NC(=O)[C@@H]1CCCN1C(=O)[C@H](CCCCN)NC(=O)[C@@H]1CCCN1C(=O)[C@@H](N)CCCNC(=N)N)C(=O)N[C@@H](CCS(C)(=O)=O)C(N)=O", "note": "[Homspera®, [Sar^9, Met(O)2^11]-substance P]", "values": [{"measurement": "toxicity", "setting": "[1]", "result": "no apparent toxicity"}]}
{"molecule": "CC(=O)NC1(c2ccccc2)CCN(CC[C@H](CN(C)C(=O)c2ccccc2)c2ccc(Cl)c(Cl)c2)CC1", "note": "[SR48968]", "values": [{"measurement": "effect of receptor antagonist on substance P-enhanced platelet colony formation", "setting": "[2]", "result": "no effect on substance P activity"}]}
{"molecule": "COc1ccccc1CN[C@H]1CCCN[C@H]1c1ccccc1", "note": "[CP-99,994]", "values": [{"measurement": "effect of receptor antagonist on substance P-enhanced platelet colony formation", "setting": "[2]", "result": "blocks the stimulatory activity of substance P"}]}
{"molecule": "Arg Pro Lys Pro Gln Gln Phe Phe Gly Leu Met [substance P]", "values": [{"measurement": "concentration at which effective on platelet precursors", "setting": "[2]", "result": "10^−8 M"}, {"measurement": "CFU-E colony formation, enhancement from control values", "setting": "[3]", "result": "about 70%"}, {"measurement": "BFU-E colony formation, increase from control values", "setting": "[4]", "result": "~60", "unit": "%"}]}
